According to US20100029620A1, “SUBSTITUTED TRIAZOLINE, TETRAZOLONE AND IMIDAZOLONE DERIVATIVES FOR USE AS A MEDICINE” (JANSSEN PHARMACEUTICA N.V., priority 2004, published 2010):

Legend:
[1] = target: T1, human adrenergic-α2A receptor (Homo sapiens, UniProt P08913); experiment: Radioligand binding experiment for α2A-adrenoceptor ([3H]-raulwolscine competition, CHO cell membranes); conditions: [3H]raulwolscine 1 nM, membranes of CHO cells transfected with human α2A receptor; read-out: pIC50 α2A (converted)
T1 construct: expressed in transfected cells; membrane preparation
T1 sequence (P08913 1-465): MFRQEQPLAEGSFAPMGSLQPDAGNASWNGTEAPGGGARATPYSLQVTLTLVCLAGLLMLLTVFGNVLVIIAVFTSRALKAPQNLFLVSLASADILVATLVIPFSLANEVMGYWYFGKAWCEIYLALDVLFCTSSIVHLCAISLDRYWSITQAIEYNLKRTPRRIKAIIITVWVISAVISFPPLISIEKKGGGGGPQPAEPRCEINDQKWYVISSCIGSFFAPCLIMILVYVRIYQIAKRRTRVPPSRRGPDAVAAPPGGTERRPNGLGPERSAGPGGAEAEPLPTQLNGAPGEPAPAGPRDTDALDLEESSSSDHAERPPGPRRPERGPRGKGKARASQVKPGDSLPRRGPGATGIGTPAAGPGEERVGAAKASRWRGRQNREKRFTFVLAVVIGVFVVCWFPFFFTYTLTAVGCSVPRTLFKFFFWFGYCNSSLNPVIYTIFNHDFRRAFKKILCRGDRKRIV
How it was run: (§1)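 CHO cell membranes stably expressing human α2A, α2B or α2C receptor were incubated with 1 nM [3H]-raulwolscine ± test compound, 60 min at 25° C in glycylglycine 25 mM, pH 8.0, then filtered and counted. Nonspecific binding: 1 μM oxymetazoline (α2A, α2B) or 1 μM spiroxatrine (α2C). pIC50 from nonlinear regression of % total binding.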

[2] = target: T2, human adrenergic-α2B receptor (Homo sapiens, UniProt P18089); experiment: Radioligand binding experiment for α2B-adrenoceptor ([3H]-raulwolscine competition, CHO cell membranes); conditions: [3H]raulwolscine 1 nM, membranes of CHO cells transfected with human α2B receptor; for IC50: read-out: pIC50 α2B (converted)
T2 construct: expressed in transfected cells; membrane preparation
T2 sequence (P18089 1-450): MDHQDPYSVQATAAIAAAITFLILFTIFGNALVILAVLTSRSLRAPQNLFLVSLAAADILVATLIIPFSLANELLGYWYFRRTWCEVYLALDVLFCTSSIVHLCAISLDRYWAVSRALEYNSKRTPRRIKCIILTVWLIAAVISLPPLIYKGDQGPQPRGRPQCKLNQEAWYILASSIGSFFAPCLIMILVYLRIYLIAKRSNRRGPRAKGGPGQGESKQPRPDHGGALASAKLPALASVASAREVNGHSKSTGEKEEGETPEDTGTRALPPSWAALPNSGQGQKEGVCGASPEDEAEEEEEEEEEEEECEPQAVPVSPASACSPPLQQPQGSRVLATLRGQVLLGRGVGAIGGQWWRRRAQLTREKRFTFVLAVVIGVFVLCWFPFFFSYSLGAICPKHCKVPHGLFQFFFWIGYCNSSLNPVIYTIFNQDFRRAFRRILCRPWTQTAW
How it was run: as §1

[3] = target: T3, human adrenergic-α2C receptor (Homo sapiens, UniProt P18825); experiment: Radioligand binding experiment for α2C-adrenoceptor ([3H]-raulwolscine competition, CHO cell membranes); conditions: [3H]raulwolscine 1 nM, membranes of CHO cells transfected with human α2C receptor; read-out: pIC50 α2C (converted)
T3 construct: expressed in transfected cells; membrane preparation
T3 sequence (P18825 1-462): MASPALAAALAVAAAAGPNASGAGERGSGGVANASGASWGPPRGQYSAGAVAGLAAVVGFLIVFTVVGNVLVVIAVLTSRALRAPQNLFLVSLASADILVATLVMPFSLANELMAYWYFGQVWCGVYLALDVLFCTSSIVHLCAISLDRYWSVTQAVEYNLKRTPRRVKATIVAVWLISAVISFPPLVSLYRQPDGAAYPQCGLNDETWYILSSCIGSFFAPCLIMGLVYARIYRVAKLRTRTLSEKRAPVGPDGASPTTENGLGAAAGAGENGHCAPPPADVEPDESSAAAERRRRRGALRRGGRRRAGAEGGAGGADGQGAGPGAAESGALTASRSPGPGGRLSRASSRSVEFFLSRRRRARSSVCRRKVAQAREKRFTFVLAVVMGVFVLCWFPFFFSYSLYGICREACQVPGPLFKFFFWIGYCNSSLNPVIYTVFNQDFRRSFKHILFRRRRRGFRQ
How it was run: as §1

SMILES	IC50 [1] [nM]	IC50 [2] [nM]	IC50 [3] [nM]	pIC50 α2B [2]
CN(CCNc1ccc(-n2cnn(CC3CCN(CCOc4ccccc4)CC3)c2=O)cc1)CC1CCCCC1 [compound 42]	25.1	7.94	1	–
O=c1n(CC2CCN(CCOc3ccccc3)CC2)cnn1CCN1CCCCC1 [compound 66]	39.8	50.1	2.51	–
CC(NCCOc1ccccc1)C(C)n1ncn(-c2ccc(N3CCN(c4ccc(O)cc4)CC3)cc2)c1=O (single isomer, unassigned) [compound 7]	126	126	7.94	–
O=c1n(CC2CCN(CCOc3ccccc3)CC2)nnn1-c1ccc(CN2CCOCC2)cc1 [compound 104]	63.1	79.4	5.01	–
O=C(Cn1cnn(CC2CCN(CCOc3ccccc3)CC2)c1=O)Nc1ccc(F)cc1 [compound 47]	79.4	39.8	3.98	–
CN1CCN(CCCNc2ccc(-n3cnn(CC4CCN(CCOc5ccccc5)CC4)c3=O)cc2)CC1 [compound 49]	63.1	6.31	3.98	–
O=c1n(-c2ccc(CN3CCN(c4ccccc4)CC3)cc2)cnn1CCNCCOc1ccccc1 [compound 2]	200	200	25.1	–
C/C(=C\c1ccccc1)CN1CCC(n2cnn(CCN3CCCCC3)c2=O)CC1 [compound 79]	398	631	31.6	–
C/C(=C\c1ccccc1)CN1CCC(n2cnn(CCNCCOc3ccccc3)c2=O)CC1 [compound 29]	100	126	3.98	–
O=c1n(-c2ccc(CNCc3ccccn3)cc2)cnn1CCNCCOc1ccccc1 [compound 96]	39.8	200	3.16	–
O=c1n(-c2ccc(CN3CCC(N4CCCC4)CC3)cc2)cnn1CCNCCOc1ccccc1 [compound 21]	39.8	79.4	1.58	–
CC(NCCOc1ccccc1)C(C)n1ncn(-c2ccc(N3CCN(c4ccc(O)cc4)CC3)cc2)c1=O (single isomer, unassigned) [compound 4]	2510	200	6.31	–
COc1ccc(N2CCN(c3ccc(-n4cnn(C(C)C(C)NCCOc5ccccc5)c4=O)cc3)CC2)cc1 (stereo not drawn) [compound 10]	631	501	15.8	–
C/C(=C\c1ccccc1)CN1CCC(n2ncn(-c3ccc(CN)cc3)c2=O)CC1 [compound 34]	39.8	50.1	10	–
CN1CCCN(c2ccc(-n3cnn(CCNCCOc4ccccc4)c3=O)cc2)CC1 [compound 12]	126	100	1.58	–
CN(C)CCNc1ccc(-n2cnn(CCNCCOc3ccccc3)c2=O)cc1 [compound 87]	31.6	–	1.26	7.5
COc1ccccc1C1CCN(C(C)C(C)n2ncn(-c3ccc(N4CCN(c5ccc(O)cc5)CC4)cc3)c2=O)C1 (stereo not drawn) [compound 55]	1260	50.1	15.8	–
CN(C)CCNc1ccc(-n2cnn(CCC3CCN(CCOc4ccccc4)CC3)c2=O)cc1 [compound 40]	3.98	0.631	0.794	–
